Here are results for 2 molecules from US20220218715A1, “NOVEL USE OF PYRROLO-PYRIDINE DERIVATIVE COMPOUND FOR PREVENTION AND/OR TREATMENT OF CANCER” (VORONOI CO., LTD., priority 2019, published 2022).

Each structure is given as a SMILES string.

One assay has as its system PC-9 lung cancer cells. Kind of assay: Anticancer effect in mouse model with PC-9 lung cancer cells. The assay is classed as in vivo, Balb/c Nude Mice. Conditions: PC-9 model; singular treatment with EGFR targeting drug, PO QD (Gefitinib 10 mg/kg, Osimertinib 3 mg/kg). As for the experimental part:
(§1) The PC-9 cell line was purchased from NanJing Cobioer Biological Technology Co., Ltd. Cells were kept in RPMI-1640 containing 10% FBS, and cultured in a 37° C. humidified cell culture incubator at 5% C2. All animal experiments were carried out according to the Animal Use and Management Guidelines of Shanghai Medicilon Inc. Under sterile conditions, 2×10^6 PC-9 tumor cells (0.1 mL, cell:Matrigel®=1:1) was administered to the right waist of each animal by S.C. administration. Tumor size and animal body weight were measured twice weekly, and clinical symptoms were recorded daily. The mice will be administered individually according to most recent body weight. The tumors were measured using calipers using two measurements, length (a) and width (b). The volume of the tumors was calculated individually as follows, from the two measured diameters of the tumors: tumor volume (mm^3)=(a×b^2)/2.

Assay [1] relates to NCI-H1975 lung cancer cells. Kind of assay: Anticancer effect in mouse model with NCI-H1975 lung cancer cells. The format is in vivo, Balb/c Nude Mice. The note with it: singular treatment with Osimertinib 3.5 mg/kg PO QD. As for the experimental part:
as §1, with “NCI-H1975” for “PC-9”, “the Institute of Biochemistry and Cell Biology (Shanghai Institutes for” for “NanJing Cobioer”, “Sciences, CAS).” for “Technology Co., Ltd.”, “CO2.” for “C2.”, “Under sterile conditions, 2×10^6 PC-9 tumor cells (0.1 mL, cell:Matrigel®=1:1) was administered to the right waist of each animal by S.C. administration.” left out

Take `COc1cc2ncnc(Nc3ccc(F)c(Cl)c3)c2cc1OCCCN1CCOCC1` [Gefitinib, reference compound]: in the assay on PC-9 lung cancer cells, the “cancer cell regrowth during treatment” value was “early regrowth of cancer cells was observed”. `C=CC(=O)Nc1cc(Nc2nccc(-c3cn(C)c4ccccc34)n2)c(OC)cc1N(C)CCN(C)C` [Osimertinib, reference compound]: the “cancer cell regrowth during treatment” value (in the assay on PC-9 lung cancer cells; in assay [1]) was “early regrowth of cancer cells was observed” each time.
